# According to patent EP0953357A1, “NEPHROTROPIC DRUGS” (Drug Delivery System Institute, Ltd., priority 1997, dated 1998):
# “And” between values parts separate entries of the source, which are not always exact repeats. Equal values may be shown once. Where a name gives a salt, the structure may show the parent alone.
# Assays:
# kidney membrane fraction [1] = test: Effect of glycolipid derivatives on inhibition of specific binding between ^3H-Glc-S-C8 and kidney membrane fraction (Test 9); settings: specific binding of ^3H-Glc-S-C8 to kidney membrane fraction, same manner as Test 4
# Protocol: A membrane fraction was prepared by the method of Stassen F.L. et al. (J. Pharm. Exp. Thera., 223, 50-54, 1982). An experiment on binding was carried out as follows. The membrane fraction prepared above, together with the ^3H-labeled derivative, was incubated in physiological phosphate buffer on ice, followed by ultracentrifugation. The bound product obtained as the sediment by the ultracentrifugation was counted. […]
# Commercially available or synthesized glycolipid derivatives were subjected to an binding inhibition experiment in the same manner as in Test 4.
# kidney membrane fraction [2] = test: Inhibition of binding of ^3H-Glc-O-C8-AVP to kidney membrane fraction (Test 4); settings: ^3H-Glc-O-C8-AVP 20 pmol/ml, kidney membrane fraction 1 mg/ml, on ice 10 min
# Protocol: A membrane fraction was prepared by the method of Stassen F.L. et al. (J. Pharm. Exp. Thera., 223, 50-54, 1982). An experiment on binding was carried out as follows. The membrane fraction prepared above, together with the ^3H-labeled derivative, was incubated in physiological phosphate buffer on ice, followed by ultracentrifugation. The bound product obtained as the sediment by the ultracentrifugation was counted.
# The inhibitory activity of segmental structures of Glc-O-C8-AVP and the like against binding ^3H-Glc-O-C8-AVP (20 pmol/ml) to the kidney membrane fraction (1 mg/ml) (incubation on ice for 10 min) was studied.
# [3] = Renal selectivity (organ distribution) of thioglucoside-modified products (Test 6); assay type: in vivo; settings: rats; for Conc. in kidney / Renal clearance: ^3H-labeled product, same manner as Test 1 (i.v. 1 nmol/kg, 5 min); for renal selectivity: comparison between AVP derivatives
# Protocol: (§1) The organ clearance was determined by the following equation.
# [4] = Distribution of sugar-modified AVP in organs (Test 1); assay type: in vivo, male SD rats; settings: rats, i.v. 1 nmol/kg, 5 min after administration; concentration in organs and organ clearance as index (Figs. 1 and 2)
# Protocol: as §1
# The organ clearance under the above experimental conditions is considered as a measure of the speed at which the compound is incorporated into the organs. The kidney is an organ which functions to perform glomerular filtration for the production of urine. The renal clearance of low-molecular weight compounds, which are likely to undergo glomerular filtration, is generally larger than the clearance for other organs. Further, under the above experimental conditions, it was estimated from the results on ^14C-labeled inulin that the incorporation of about 0.6 ml/min/g was carried out by glomerular filtration. Larger values indicate the incorporation of drugs into the kidney through blood vessels in addition to the glomerular filtration.
# kidney membrane fraction [5] = test: Effect of sugars on inhibition of specific binding between ^3H-Glc-S-C8 and kidney membrane fraction (Test 8); settings: ^3H-Glc-S-C8 20 pmol/ml, kidney membrane fraction 1 mg protein/ml
# Protocol: In order to estimate structural requirement for recognition in the kidney, an experiment was carried out on the effect of various sugars and sugar derivatives on the inhibition of specific -binding between ^3H-Glc-S-C8 (20 pmol/ml) and the kidney membrane fraction (1 mg protein/ml).
# [6] = Pharmacokinetic test of monkey (Glc-S-C8-CONH-C2-NBD) (Test 10 (2)); assay type: in vivo; settings: monkeys, i.v. 10 nmol/kg, 5 min; n = 2, average
# Protocol: In order to investigate the difference in activity of the compounds according to the present invention between animal species, the pharmacokinetic test using monkeys was carried out as follows. […] The monkeys of group A were injected with Glc-S-C8-CONH-C2-NBD, while, for comparison, the monkeys of group B were injected with 4-(2-hydroxyethyl)amino-7-nitrobenz-2-oxa-1,3-diazole (synthesis intermediate prepared in Example 44; hereinafter referred to as "HO-C2-NBD").
# Five min after the administration, the monkeys were bled to death; and, immediately after that, each organ was extracted. According to the conventional method, the organs were homogenized and deprotenized. Thereafter, the samples were subjected to separation by reversed phase liquid chromatography. Glc-S-C8-CONH-C2-NBD and HO-C2-NBD were detected and quantitatively determined by fluorescence detector.
compound,measurement,setting,value
"CCCCCCCCS[C@@H]1O[C@H](CO)[C@@H](O)[C@H](O)[C@H]1O [Glc-S-C8, Octyl 1-thio-β-D-glucopyranoside]",IC50,kidney membrane fraction [1],0.078 µM
same,IC50,kidney membrane fraction [2],0.065 µM
"COC(=O)CCCCCCCCS[C@@H]1S[C@H](CO)[C@@H](O)[C@H](O)[C@H]1O [5S-Glc-S-C8-COOMe, 8-methoxycarbonyloctyl 5-deoxy-1,5-dithio-β-D-glucopyranoside]",IC50,kidney membrane fraction [1],14 µM
N=C(N)NCCC[C@H](NC(=O)[C@@H]1CCCN1C(=O)[C@@H]1CSSC[C@H](NC(=O)CCCCCCCCCCCS[C@@H]2O[C@H](CO)[C@@H](O)[C@H](O)[C@H]2O)C(=O)N[C@@H](Cc2ccc(O)cc2)C(=O)N[C@@H](Cc2ccccc2)C(=O)N[C@@H](CCC(N)=O)C(=O)N[C@@H](CC(N)=O)C(=O)N1)C(=O)NCC(N)=O [Glc-S-C11-AVP],Conc. in kidney,[3],40.2±1.5 % of dose/g
same,Renal clearance,[3],4.47 ± 0.33 mL/min/g
same,renal selectivity,[3],higher renal selectivity than Glc-S-C8-AVP
N=C(N)NCCC[C@H](NC(=O)[C@@H]1CCCN1C(=O)[C@@H]1CSSC[C@H](NC(=O)CCCCCCCCO[C@H]2C[C@@H](O)[C@H](O)[C@@H](CO)O2)C(=O)N[C@@H](Cc2ccc(O)cc2)C(=O)N[C@@H](Cc2ccccc2)C(=O)N[C@@H](CCC(N)=O)C(=O)N[C@@H](CC(N)=O)C(=O)N1)C(=O)NCC(N)=O [2dGlc-O-C8-AVP],renal selectivity,[4],high renal selectivity
O=C[C@H](F)[C@@H](O)[C@H](O)[C@H](O)CO [2-Fluoro-2-deoxyglucose],Inhibition (%),kidney membrane fraction [5]; sample 20 mM,37.8%
same,Inhibition (%),kidney membrane fraction [5]; sample 100 mM,67.9%
"O=[N+]([O-])c1ccc(S[C@@H]2O[C@H](CO)[C@@H](O)[C@H](O)[C@H]2O)cc1 [Glc-S-pNP, p-Nitrophenyl 1-thio-β-D-glucopyranoside]",IC50,kidney membrane fraction [1],0.23 µM
"CCCCCCO[C@@H]1O[C@H](CO)[C@@H](O)[C@H](O)[C@H]1O [Glc-O-C6, Hexyl β-D-glucopyranoside]",IC50,kidney membrane fraction [2],5.9 µM
O=CC[C@@H](O)[C@H](O)[C@H](O)CO [2-Deoxyglucose],Inhibition (%),kidney membrane fraction [5]; sample 20 mM,29.2%
same,Inhibition (%),kidney membrane fraction [5]; sample 100 mM,58.3%
O=C[C@H](O)[C@@H](O)[C@H](O)[C@H](O)CF [6-Fluoro-6-deoxyglucose],Inhibition (%),kidney membrane fraction [5]; sample 20 mM,17.8%
same,Inhibition (%),kidney membrane fraction [5]; sample 100 mM,32.5%
"CCCCCCCCS[C@@H]1O[C@H](CO)C[C@H](O)[C@H]1O [Example 4d-Glc-S-C8, n-octyl 4-deoxy-1-thio-β-D-glucopyranoside]",IC50,kidney membrane fraction [1],55 µM
O=C[C@H](O)[C@@H](F)[C@H](O)[C@H](O)CO [3-Fluoro-3-deoxyglucose],Inhibition (%),kidney membrane fraction [5]; sample 20 mM,9.7%
same,Inhibition (%),kidney membrane fraction [5]; sample 100 mM,18.7%
"CCCCC(CCCC)S[C@@H]1O[C@H](CO)[C@@H](O)[C@H](O)[C@H]1O [Glc-S-CH(C4H9)2, 5-(1-Thio-β-D-glucopyranosyl)nonan]",IC50,kidney membrane fraction [1],1.5 µM
"OC[C@H]1OC(O)[C@H](O)[C@@H](O)[C@@H]1O (stereo partly drawn) [Glc, glucopyranose]",Inhibition (%),kidney membrane fraction [5]; sample 20 mM,16.7%
same,Inhibition (%),kidney membrane fraction [5]; sample 100 mM,38.4%
same,IC50,kidney membrane fraction [2],> 2000 µM
"CCCCCCCCS[C@H]1C[C@@H](O)[C@H](O)[C@@H](CO)O1 [Example 2d-Glc-S-C8, Octyl 2-deoxy-1-thio-β-D-glucopyranoside]",IC50,kidney membrane fraction [1],0.071 µM
"COC(=O)CCCCCCCCO[C@@H]1O[C@H](CO)[C@@H](O)[C@H](O)[C@H]1O [Glc-O-C8-COOMe, 8-methoxycarbonyloctylβ-D-glucopyranoside]",IC50,kidney membrane fraction [1],33 µM
O=C(CCCCCCCCS[C@@H]1O[C@H](CO)[C@@H](O)[C@H](O)[C@H]1O)NCCNc1ccc([N+](=O)[O-])c2nonc12 [Glc-S-C8-CONH-C2-NBD],concentration of administered compound: Adrenal,[6],1.87 pmol/mol or g tissue
same,concentration of administered compound: Blood,[6],10.72 pmol/mol or g tissue
same,concentration of administered compound: Heart,[6],3.23 pmol/mol or g tissue
same,concentration of administered compound: Kidney,[6],280.32 pmol/mol or g tissue
same,concentration of administered compound: Liver,[6],13.85 pmol/mol or g tissue
same,concentration of administered compound: Lung,[6],6.90 pmol/mol or g tissue
same,concentration of administered compound: Plasma,[6],16.42 pmol/mol or g tissue
same,concentration of administered compound: Spleen,[6],0.55 pmol/mol or g tissue
"O=[N+]([O-])c1ccc(NCCO)c2nonc12 [HO-C2-NBD, 4-(2-hydroxyethyl)amino-7-nitrobenz-2-oxa-1,3-diazole, reference compound]",concentration of administered compound: Adrenal,[6],2.05 pmol/mol or g tissue
same,concentration of administered compound: Blood,[6],7.53 pmol/mol or g tissue
same,concentration of administered compound: Heart,[6],10.92 pmol/mol or g tissue
same,concentration of administered compound: Kidney,[6],2.33 pmol/mol or g tissue
same,concentration of administered compound: Lung,[6],17.33 pmol/mol or g tissue
same,concentration of administered compound: Plasma,[6],7.51 pmol/mol or g tissue
same,concentration of administered compound: Spleen,[6],2.35 pmol/mol or g tissue
"CCCCCCCCS[C@@H]1OC[C@@H](O)[C@H](O)[C@H]1O [Xyl-S-C8, Octyl 1-thio-β-D-xylopyranoside]",IC50,kidney membrane fraction [1],1.5 µM
"CO[C@@H]1O[C@H](CO)[C@@H](O)[C@H](O)[C@H]1O [Glc-O-CH3, Methyl β-D-glucopyranoside]",IC50,kidney membrane fraction [2],> 2000 µM
"CCCCCCCCS[C@@H]1O[C@H](CO)[C@@H](O)[C@@H](O)[C@H]1O [All-S-C8, Octyl 1-thio-β-D-allopyranoside]",IC50,kidney membrane fraction [1],1.1 µM
"arginine vasopressin [AVP, reference compound]",IC50,kidney membrane fraction [2],150 µM
same,Conc. in kidney,[3],5.3±0.7 % of dose/g
same,Renal clearance,[3],0.49 ± 0.04 mL/min/g
"CC(C)(C)CC(C)(C)S[C@@H]1O[C@H](CO)[C@@H](O)[C@H](O)[C@H]1O [Glc-S-C(CH3)2-CH2-C(CH3)3, t-Octyl 1-thio-β-D-glucopyranoside]",IC50,kidney membrane fraction [1],1 µM
O=C[C@H](O)[C@@H](O)[C@H](F)[C@H](O)CO [4-Fluoro-4-deoxyglucose],Inhibition (%),kidney membrane fraction [5]; sample 20 mM,70.2%
same,Inhibition (%),kidney membrane fraction [5]; sample 100 mM,83.9%
"COC(=O)CCCCCCCCS[C@@H]1N[C@H](CO)[C@@H](O)[C@H](O)[C@H]1O [5N-Glc-S-C8-COOMe, 8-methoxycarbonyloctyl 5-amino-5-deoxy-1-thio-β-D-glucopyranoside hydrochloride]",IC50,kidney membrane fraction [1],4.7 µM
"CCCCCCCCS[C@@H]1O[C@H](CO)[C@@H](O)[C@H](O)[C@@H]1O [Man-S-C8, Octyl 1-thio-β-D-mannopyranoside]",IC50,kidney membrane fraction [1],0.2 µM
"COC(=O)CCCCCCCCS[C@@H]1O[C@H](CO)[C@@H](O)[C@H](O)[C@H]1O [Glc-S-C8-COOMe, 8-methoxycarbonyloctyll-thio-β-D-glucopyranoside]",IC50,kidney membrane fraction [1],0.59 µM
O=C[C@H](O)[C@@H](O)[C@@H](O)[C@H](O)CO [Galactose],Inhibition (%),kidney membrane fraction [5]; sample 20 mM,2.5%
same,Inhibition (%),kidney membrane fraction [5]; sample 100 mM,18.9%
"CCCCCCCCO[C@@H]1O[C@H](CO)[C@@H](O)[C@H](O)[C@H]1O [Glc-O-C8, Octyl β-D-glucopyranoside]",IC50,kidney membrane fraction [1],4.6 µM
same,IC50,kidney membrane fraction [2],2.9 µM
OC[C@H]1NC[C@H](O)[C@@H](O)[C@@H]1O [1-Deoxynojirimycin],Inhibition (%),kidney membrane fraction [5]; sample 20 mM,98.9%
same,Inhibition (%),kidney membrane fraction [5]; sample 100 mM,99.6%
"CCCCCCCCS[C@@H]1O[C@H](CO)[C@H](O)[C@H](O)[C@H]1O [Gal-S-C8, Octyl 1-thio-β-D-galactopyranoside]",IC50,kidney membrane fraction [1],37 µM
same,IC50,kidney membrane fraction [2],120 µM
"COC(=O)CCCCCCCN[C@@H]1O[C@H](CO)[C@@H](O)[C@H](O)[C@H]1O [Glc-NH-C7-COOMe, N-(7-methoxycarbonyl)heptyl-β-D-glucopyranosylamine]",IC50,kidney membrane fraction [1],0.11 µM
N=C(N)NCCC[C@H](NC(=O)[C@@H]1CCCN1C(=O)[C@@H]1CSSC[C@H](NC(=O)CCCCCCCCS[C@@H]2O[C@H](CO)[C@@H](O)[C@H](O)[C@H]2O)C(=O)N[C@@H](Cc2ccc(O)cc2)C(=O)N[C@@H](Cc2ccccc2)C(=O)N[C@@H](CCC(N)=O)C(=O)N[C@@H](CC(N)=O)C(=O)N1)C(=O)NCC(N)=O [Glc-S-C8-AVP],Conc. in kidney,[3],29.2±0.9 % of dose/g
same,Renal clearance,[3],3.42 mL/min/g and 3.42 ± 0.05 mL/min/g
same,renal selectivity,[3],higher renal selectivity than Glc-O-C8-AVP
